Here are results for one molecule from patent US8101761B2, “(E)-N-{3-[1-(8-fluoro-11H-10-OXA-1-AZA-dibenzo [A,D] cyclohepten-5ylidene)-propyl]-phenyl}-methanesulfonamide as glucocorticoid receptor modulator for the treatment of rheumatoid arthritis” (Eli Lilly and Company, priority 2008, dated 2012).

Molecules are shown by their SMILES.

One may read the Ki as the equilibrium dissociation constant of an inhibitor or competing ligand from its target.

The assay addresses T1, human GR (glucocorticoid receptor) (Homo sapiens, UniProt P04150).
T1 construct: expressed in transfected cells; host or cells: HEK293 (293-GR lysate)
T1 sequence (P04150 1-777): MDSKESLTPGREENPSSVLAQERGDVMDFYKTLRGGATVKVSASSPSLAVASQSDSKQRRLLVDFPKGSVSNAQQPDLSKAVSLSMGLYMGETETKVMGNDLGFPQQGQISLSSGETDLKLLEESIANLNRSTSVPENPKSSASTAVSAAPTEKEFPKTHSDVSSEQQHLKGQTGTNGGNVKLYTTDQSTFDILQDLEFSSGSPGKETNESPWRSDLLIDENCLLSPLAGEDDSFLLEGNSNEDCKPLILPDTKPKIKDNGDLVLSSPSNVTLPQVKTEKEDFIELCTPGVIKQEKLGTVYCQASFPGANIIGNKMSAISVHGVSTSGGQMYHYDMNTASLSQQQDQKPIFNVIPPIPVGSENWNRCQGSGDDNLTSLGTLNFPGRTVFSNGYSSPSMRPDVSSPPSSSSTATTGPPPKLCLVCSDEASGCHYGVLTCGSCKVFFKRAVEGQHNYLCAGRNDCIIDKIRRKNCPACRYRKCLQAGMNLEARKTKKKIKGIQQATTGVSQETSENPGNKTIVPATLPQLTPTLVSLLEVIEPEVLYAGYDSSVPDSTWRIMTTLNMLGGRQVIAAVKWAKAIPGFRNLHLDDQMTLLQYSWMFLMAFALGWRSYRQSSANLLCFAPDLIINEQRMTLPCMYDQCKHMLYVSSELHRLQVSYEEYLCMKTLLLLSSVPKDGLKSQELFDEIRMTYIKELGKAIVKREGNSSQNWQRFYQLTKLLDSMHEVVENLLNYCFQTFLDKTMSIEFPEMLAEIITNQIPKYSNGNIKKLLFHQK
Kind of assay: Nuclear hormone receptor competition binding assay, GR. Here is the method: Cell lysates from human embryonic kidney HEK293 cells overexpressing human GR (glucocorticoid receptor), AR (androgen receptor), MR (mineralocorticoid receptor), or PR (progesterone receptor) are used for receptor-ligand competition binding assays to determine Ki values.
Briefly, steroid receptor competition binding assays are run in a buffer containing 20 mM Hepes buffer (pH=7.6), 0.2 mM EDTA, 75 mM NaCl, 1.5 mM MgCl2, 20% glycerol, 20 mM sodium molybdate, 0.2 mM DTT (dithiothreitol), 20 μg/ml aprotinin and 20 μg/ml leupeptin. Typically, steroid receptor binding assays include radio-labeled ligands, such as 0.3 nM [^3H]-dexamethasone for GR binding, 0.36 nM [^3H]-methyltrienolone for AR binding, 0.25 nM [^3H]-aldosterone for MR binding, and 0.29 nM [^3H]-methyltrienolone for PR binding, and either 20 μg 293-GR lysate, 22 μg 293-AR lysate, 20 μg 293-MR lysate or 40 μg 293-PR lysate per well. Assays are typically run in 96-well format. Competing test compounds are added at various concentrations ranging from about 0.01 nM to 10 μM. Non-specific binding is determined in the presence of 500 nM dexamethasone for GR binding, 500 nM aldosterone for MR binding, or 500 nM methyltrienolone for AR and PR binding. […] After an incubation of 2 hours, plates are read in a Wallac Microbeta counter. […]

As to `CC/C(=C1\c2ccc(F)cc2OCc2ncccc21)c1cccc(NS(C)(=O)=O)c1` [Compound (I), (E)-N-{3-[1-(8-Fluoro-11H-10-oxa-1-aza-dibenzo[a,d]cyclohepten-5-ylidene)-propyl]-phenyl}-methanesulfonamide], the inhibitory constant (Ki) (HEK293 lysate overexpressing human GR, [3H]-dexamethasone, mean of n=7) is roughly 0.2 nM. Further, under “ratio of binding affinities”, the “greater affinity for GR relative to each of human MR, AR, and PR” value is on record as no less than 15 fold.
